Source: US20090233899A1, “Crystalline Modification of Cefuroximaxetil” (Gruenenthal GmbH, priority 2006, published 2009)

Assay: Binary mixtures of the ε-modification with the α-, β- or γ-modification in methanol and acetone (relative thermodynamic stability)
Format: physicochemical

## CO/N=C(\C(=O)N[C@@H]1C(=O)N2C(C(=O)OC(C)OC(C)=O)=C(COC(N)=O)CS[C@H]12)c1ccco1 (stereo partly shown) [ε-modification, cefuroximaxetil]
  thermodynamic stability relative to the other crystalline modifications: more stable than the α-, β- or γ-modification
